Where “and” joins values, the source holds several entries; their conditions need not be identical. Identical values can stand only once. Like-named read-outs stand apart in the source and are kept apart here.
Legend:
[1] = system: rats with monocrotaline induced pulmonary arterial hypertension; test: Monocrotaline rat model for treatment of pulmonary arterial hypertension, dosing Day 14 till Day 28 (Example 2); type: in vivo, Male Sprague-Dawley rats; conditions: Sildenafil 100 mg/Kg p.o. QD Day 14 till Day 28; for inhibition at 100 mg/kg: Rattus norvegicus, po
Description: The studies were conducted for hemodynamic evaluation of Temozolomide in anesthetized Sprague Dawley rats treated with monocrotaline (“MCT”) to induce pulmonary arterial hypertension. Sildenafil was used as an internal control to compare the effects of temozolomide
The effects of temozolomide were evaluated in rats with monocrotaline induced pulmonary arterial hypertension using sildenafil as standard care treatment. Male Sprague-Dawley rats were orally administered vehicle, temozolomide (30 mg/kg, given once daily every day starting on Day 14 till Day 28), or sildenafil (100 mg/kg, given once daily every day starting on Day 14 till Day 28) (n=12 in each group). Rats received a single injection of monocrotaline (50 mg/kg, s.c.) on Study Day 1. On the twenty-eighth day following monocrotaline dosing, the rats were anesthetized with ketamine/xylazine for terminal monitoring of pulmonary and systemic arterial pressures along with heart rate.
Test Item: Vehicle (0.5% Methylcellulose+0.2% Tween 80 in deionized water, temozolomide (30 mg/kg given once daily starting on Day 14 till Day 28; Sildenafil (100 mg/kg, administered once daily starting on Day 14 till Day 28)
(§1) Route of Administration: Oral
Study Design: The study was planned and conducted according to design depicted below in Table 7
Pulmonary arterial hypertension was induced by injecting 50 mg/kg dose of monocrotaline (3 mL/Kg MCT in 50% DMSO in water) subcutaneously to all the randomized Male Sprague-Dawley rats of Groups VII, VIII, IX, and X (except negative control group). Negative control group (Group VI, DMSO group) received a single dose of 3 mL/kg 50% DMSO in water for injection subcutaneously. Male Sprague-Dawley rats in groups VII, VIII, IX, and X were administered 50 mg/kg of body weight of monocrotaline in DMSO subcutaneously to induce PAH on day 1. The rats of vehicle positive control group (Group VIII) received 5 ml of vehicle every morning. The rats of the temozolomide group (Group IX) were orally administered Temozolomide (30 mg/kg given once daily starting on Day 14 till Day 28) and rats of sildenafil group (Group X) were orally administered sildenafil (100 mg/kg given once daily starting on Day 14 till Day 28). On the twenty-eighth day after monocrotaline dosing, the rats were anesthetized with ketamine/xylazine for terminal monitoring of pulmonary and systemic arterial pressures along with heart rate. It is understood that from day 1 till administration of test compounds i.e till day 14, rates of all groups were suffering from PAH due to administration of MCT. Thus the study was conducted to evaluate the efficacy of Temozolomide treatment for PAH. Sildenafil was used as an internal control to compare the effects of Temozolomide.

[2] = system: rats with monocrotaline induced pulmonary arterial hypertension; test: Monocrotaline rat model for pulmonary arterial hypertension, dosing from Day 1 for 28 days (Example 1); type: in vivo, Male Sprague-Dawley rats; conditions: Sildenafil 100 mg/Kg p.o. QD 28 days from Day 1, Day 28
Description: The studies were conducted for hemodynamic evaluation of temozolomide in anesthetized sprague dawley rats treated with monocrotaline (“MCT”) to induce pulmonary arterial hypertension. Sildenafil was used as an internal control to compare the effects of temozolomide.
The effects of temozolomide were evaluated in rats with monocrotaline induced pulmonary arterial hypertension using sildenafil as standard care treatment. Male Sprague-Dawley rats were orally administered vehicle, temozolomide (10 mg/kg given once daily every day for 28 days starting on Day 1), or sildenafil (100 mg/kg, administered once daily every day for 28 days starting on Day 1) (n=12 in each group). Rats received a single injection of monocrotaline (50 mg/kg, s.c.) on Study Day 1. On the twenty-eighth day following monocrotaline dosing, the rats were anesthetized with ketamine/xylazine for terminal monitoring of pulmonary and systemic arterial pressures along with heart rate.
Test Item: Vehicle (0.5% Methylcellulose+0.2% Tween 80 in deionized water, Temozolomide (10 mg/kg given once daily for 28 days; Sildenafil (100 mg/kg administered once daily)
as §1
Study Design: The study was planned and conducted according to design depicted below in Table 1
Pulmonary arterial hypertension was induced by injecting monocrotaline (3 mL/Kg MCT in 50% DMSO in water) subcutaneously at a dose of 50 mg/kg of body weight to all the randomized Male Sprague-Dawley rats of Groups II, III,IV and V (except negative control group). Negative control group (Group I, DMSO group) received a single dose of 3 mL/kg 50% DMSO in water for injection subcutaneously. The positive control group (Group III) received 5 ml of vehicle every morning. The rats of temozolomide group (Group IV) were orally administered temozolomide (10 mg/kg given once daily for 28 days starting on Day 1) and rats of sildenafil group (Group V) were orally administered sildenafil (100 mg/kg given once daily for 28 days starting on Day 1) On the twenty-eighth day after monocrotaline dosing, the rats were anesthetized with ketamine/xylazine for terminal monitoring of pulmonary and systemic arterial pressures along with heart rate.

CCCc1nn(C)c2c(=O)[nH]c(-c3cc(S(=O)(=O)N4CCN(C)CC4)ccc3OCC)nc12 [Sildenafil]
inhibition at 100 mg/kg ([1]; positive control = 0.00, read-out: % Inhibition of Right Ventricular Pressure (RVP)): 58.3%
inhibition at 100 mg/kg ([1]; positive control = 0.00, read-out: % Inhibition of Right Ventricular Systolic Pressure (RVSP)): 55.1%
% Inhibition of Fulton index : Hypertrophy (RV/LV + S) ([1]; positive control = 0.00): 30.70%
Fulton index: Hypertrophy (RV/LV + S), Mean ([1]; group mean, Day 28): 0.384
Right Ventricle weight, Mean ([1]; group mean, Day 28): 0.286 gms
Right Ventricular Pressure (RVP), Mean ([1]; group mean, Day 28): 14.302 mmHg
Right Ventricular Systolic Pressure (RVSP), Mean ([1]; group mean, Day 28): 30.803 mmHg
Right ventricle/Body weight, Mean ([1]; group mean, Day 28): 0.0008
Fulton index: Hypertrophy (RV/LV + S) ([1]; individual animals, Day 28): 0.464 and 0.393 and 0.306 and 0.337 and 0.389 and 0.415
Right Ventricle weight ([1]; individual animals, Day 28): 0.309 gms and 0.220 gms and 0.259 gms and 0.256 gms and 0.308 gms and 0.363 gms
Right Ventricular Pressure (RVP) ([1]; individual animals, Day 28): 10.916 mmHg and 11.268 mmHg and 17.424 mmHg and 11.506 mmHg and 16.211 mmHg and 18.486 mmHg
Right Ventricular Systolic Pressure (RVSP) ([1]; individual animals, Day 28): 22.951 mmHg and 27.908 mmHg and 33.917 mmHg and 23.264 mmHg and 40.201 mmHg and 36.579 mmHg
Right ventricle/Body weight ([1]; individual animals, Day 28): 0.0009 (2×) and 0.0006 and 0.0007 (2×) and 0.0012
Fulton index: Hypertrophy (RV/LV + S), Mean ([2]; group mean): 0.312
RV/Body wt, Mean ([2]; group mean): 0.0006
Right Ventricular Pressure (RVP), Mean ([2]; group mean): 13.929 mmHg
Right Ventricular Systolic Pressure (RVSP), Mean ([2]; group mean): 29.648 mmHg
Right ventricle (RV), Mean ([2]; group mean): 0.247 g
Fulton index: Hypertrophy (RV/LV + S) ([2]; individual animals): 0.367 and 0.297 and 0.323 and 0.312 and 0.352 and 0.309 and 0.330 and 0.167 and 0.354
RV/Body wt ([2]; individual animals): 0.0009 and 0.0006 (4×) and 0.0007 (3×) and 0.0003
Right Ventricular Pressure (RVP) ([2]; individual animals): 11.481 mmHg and 15.226 mmHg and 11.673 mmHg and 14.427 mmHg and 14.139 mmHg and 16.310 mmHg and 12.947 mmHg and 12.352 mmHg and 16.804 mmHg
Right ventricle (RV) ([2]; individual animals): 0.440 g and 0.228 g and 0.207 g and 0.232 g and 0.308 g and 0.229 g and 0.261 g and 0.083 g and 0.236 g
Right Ventricular Systolic Pressure (RVSP) ([2]; individual animals, MCT 50 mg/kg s.c.): 23.627 mmHg and 31.322 mmHg and 24.486 mmHg and 29.450 mmHg and 31.316 mmHg and 32.922 mmHg and 34.262 mmHg and 25.579 mmHg and 33.864 mmHg

Source: patent publication US10709715B2, “Method of treating hypertension” (Cipla Limited, priority 2017, dated 2020)
